According to article PMC5218480 (PLoS ONE, 2017):

Tested on: MV-4-11 cells
Test: Gene expression microarray analysis (Affymetrix PrimeView) and GSEA
Assay type: cell-based, human
Design: RFU PODN (11730768_x_at) / Fold change /veh PODN (11730768_x_at) / RFU LINC00158 (11744669_a_at) / Fold change /veh LINC00158 (11744669_a_at) / RFU DUSP10 (11751237_a_at) / Fold change /veh DUSP10 (11751237_a_at) / RFU ID3 (11757404_x_at) / Fold change /veh ID3 (11757404_x_at) / RFU PLEKHG5 (11737974_s_at) / Fold change /veh PLEKHG5 (11737974_s_at) / RFU LRRC4B (11730491_at) / Fold change /veh LRRC4B (11730491_at) / RFU GIMAP4 (11747438_a_at) / Fold change /veh GIMAP4 (11747438_a_at) / RFU KRT8 (11758183_x_at) / Fold change /veh KRT8 (11758183_x_at) / RFU CNN1 (11734310_a_at) / Fold change /veh CNN1 (11734310_a_at) / RFU VPS37D (11726825_at) / Fold change /veh VPS37D (11726825_at) / RFU C10orf10 (11716522_x_at) / Fold change /veh C10orf10 (11716522_x_at) / RFU KIR2DL2 /// KIR2DL4 /// KIR2DL5A /// KIR2DL5B /// KIR2DS1 /// KIR2DS2 /// KIR2DS3 /// KIR2DS4 /// KIR3DL3 /// KIR3DL3 /// KIR3DS1 (11738374_at) / Fold change /veh KIR2DL2 /// KIR2DL4 /// KIR2DL5A /// KIR2DL5B /// KIR2DS1 /// KIR2DS2 /// KIR2DS3 /// KIR2DS4 /// KIR3DL3 /// KIR3DL3 /// KIR3DS1 (11738374_at) / RFU C1QL1 (11718748_at) / Fold change /veh C1QL1 (11718748_at) / RFU TMPRSS4 (11747572_a_at) / Fold change /veh TMPRSS4 (11747572_a_at) / RFU HAMP (11756126_x_at) / Fold change /veh HAMP (11756126_x_at) / RFU RNFT2 (11725882_a_at) / Fold change /veh RNFT2 (11725882_a_at) / RFU NR4A2 (11747474_a_at) / Fold change /veh NR4A2 (11747474_a_at) / RFU ABCC12 (11746883_a_at) / Fold change /veh ABCC12 (11746883_a_at) / RFU TMEM136 (11760407_x_at) / Fold change /veh TMEM136 (11760407_x_at) / RFU CLDN22 /// WWC2 (11732394_at) / Fold change /veh CLDN22 /// WWC2 (11732394_at) / RFU HLA-DPB1 (11760878_x_at) / Fold change /veh HLA-DPB1 (11760878_x_at) / RFU SPINT1 (11716480_a_at) / Fold change /veh SPINT1 (11716480_a_at) / RFU GAP43 (11754022_s_at) / Fold change /veh GAP43 (11754022_s_at) / RFU A4GNT (11735810_at) / Fold change /veh A4GNT (11735810_at) / RFU PRB3 (11715151_x_at) / Fold change /veh PRB3 (11715151_x_at) / RFU TUBB4B (11761932_at) / Fold change /veh TUBB4B (11761932_at) / RFU CAPN14 (11732068_a_at) / Fold change /veh CAPN14 (11732068_a_at) / RFU TMCC2 (11721928_a_at) / Fold change /veh TMCC2 (11721928_a_at) / RFU IRGQ (11745062_a_at) / Fold change /veh IRGQ (11745062_a_at) / RFU FAM174B (11720279_a_at) / Fold change /veh FAM174B (11720279_a_at) / RFU TMPRSS4 (11748680_a_at) / Fold change /veh TMPRSS4 (11748680_a_at) / RFU FAM212B (11763350_a_at) / Fold change /veh FAM212B (11763350_a_at) / RFU PLEKHG5 (11743358_a_at) / Fold change /veh PLEKHG5 (11743358_a_at) / RFU ZSCAN30 (11745921_a_at) / Fold change /veh ZSCAN30 (11745921_a_at) / RFU CMKLR1 (11741424_a_at) / Fold change /veh CMKLR1 (11741424_a_at) / RFU LOC101060620 /// MAPK8IP1 (11723275_at) / Fold change /veh LOC101060620 /// MAPK8IP1 (11723275_at) / RFU SPTSSB (11747773_x_at) / Fold change /veh SPTSSB (11747773_x_at) / RFU PRSS12 (11739890_at) / Fold change /veh PRSS12 (11739890_at) / RFU BIN1 (11741810_x_at) / Fold change /veh BIN1 (11741810_x_at) / RFU WNT11 (11732464_a_at) / Fold change /veh WNT11 (11732464_a_at) / RFU C10orf10 (11716521_a_at) / Fold change /veh C10orf10 (11716521_a_at) / RFU C5orf56 (11738089_at) / Fold change /veh C5orf56 (11738089_at) / RFU CYB561 (11721691_x_at) / Fold change /veh CYB561 (11721691_x_at) / RFU ANKRD19P (11752326_a_at) / Fold change /veh ANKRD19P (11752326_a_at) / RFU OR2T12 /// OR2T33 /// OR2T8 (11738714_s_at) / Fold change /veh OR2T12 /// OR2T33 /// OR2T8 (11738714_s_at) / RFU VCAN (11748164_a_at) / Fold change /veh VCAN (11748164_a_at) / RFU JSRP1 (11732532_at) / Fold change /veh JSRP1 (11732532_at) / RFU KRTAP10-11 (11738290_x_at) / Fold change /veh KRTAP10-11 (11738290_x_at) / RFU MYO3A (11730013_a_at) / Fold change /veh MYO3A (11730013_a_at) / RFU EBF3 (11725865_a_at) / Fold change /veh EBF3 (11725865_a_at) / RFU CAMK2N1 (11719241_x_at) / Fold change /veh CAMK2N1 (11719241_x_at) / RFU C5orf56 (11738088_a_at) / Fold change /veh C5orf56 (11738088_a_at) / RFU OLFML3 (11715873_a_at) / Fold change /veh OLFML3 (11715873_a_at) / RFU LOC100653217 /// NTM (11731650_a_at) / Fold change /veh LOC100653217 /// NTM (11731650_a_at) / RFU MAPK11 (11762145_a_at) / Fold change /veh MAPK11 (11762145_a_at) / RFU FIZ1 (11724087_x_at) / Fold change /veh FIZ1 (11724087_x_at) / RFU OASL (11726364_x_at) / Fold change /veh OASL (11726364_x_at) / RFU SOX15 (11748057_x_at) / Fold change /veh SOX15 (11748057_x_at) / RFU CD79A (11719716_a_at) / Fold change /veh CD79A (11719716_a_at) / RFU HIST1H1D (11736915_at) / Fold change /veh HIST1H1D (11736915_at) / RFU CASKIN2 (11723855_a_at) / Fold change /veh CASKIN2 (11723855_a_at) / RFU LOC730098 (11760151_x_at) / Fold change /veh LOC730098 (11760151_x_at) / RFU OR4N2 (11742367_at) / Fold change /veh OR4N2 (11742367_at) / RFU PRRT2 (11749266_a_at) / Fold change /veh PRRT2 (11749266_a_at) / RFU SNX32 (11753110_a_at) / Fold change /veh SNX32 (11753110_a_at) / RFU CDHR5 (11726645_a_at) / Fold change /veh CDHR5 (11726645_a_at) / RFU RCAN1 (11760418_a_at) / Fold change /veh RCAN1 (11760418_a_at) / RFU FAM167A (11723789_a_at) / Fold change /veh FAM167A (11723789_a_at) / RFU FAM26E (11764081_at) / Fold change /veh FAM26E (11764081_at) / RFU ISYNA1 (11749810_s_at) / Fold change /veh ISYNA1 (11749810_s_at) / RFU ACY1 (11761880_at) / Fold change /veh ACY1 (11761880_at) / RFU 11764098_at / Fold change /veh 11764098_at / RFU SAMD14 (11745864_x_at) / Fold change /veh SAMD14 (11745864_x_at) / RFU NPB (11741838_a_at) / Fold change /veh NPB (11741838_a_at) / RFU TMPRSS6 (11731388_a_at) / Fold change /veh TMPRSS6 (11731388_a_at) / RFU KRTAP10-2 (11738614_at) / Fold change /veh KRTAP10-2 (11738614_at) / RFU ARHGAP8 /// PRR5-ARHGAP8 (11727945_x_at) / Fold change /veh ARHGAP8 /// PRR5-ARHGAP8 (11727945_x_at) / RFU KRTAP5-7 /// NADSYN1 (11734609_at) / Fold change /veh KRTAP5-7 /// NADSYN1 (11734609_at) / RFU RASL12 (11751679_a_at) / Fold change /veh RASL12 (11751679_a_at) / RFU CDKN2B (11736163_a_at) / Fold change /veh CDKN2B (11736163_a_at) / RFU PRF1 (11729649_at) / Fold change /veh PRF1 (11729649_at) / RFU, ZNF638 /// ZNF638-IT1 / Fold change vs veh, ZNF638 /// ZNF638-IT1 / RFU, PANK3 / Fold change vs veh, PANK3 / RFU, SH3YL1 / Fold change vs veh, SH3YL1 / RFU, ZEB2 / Fold change vs veh, ZEB2 / RFU, NRIP1 / Fold change vs veh, NRIP1 / RFU, PTTG1IP / Fold change vs veh, PTTG1IP / RFU, CAPN2 / Fold change vs veh, CAPN2 / RFU, MED14 / Fold change vs veh, MED14 / RFU, SNORA58 / Fold change vs veh, SNORA58 / RFU, C1orf63 / Fold change vs veh, C1orf63 / RFU, LRRFIP1 / Fold change vs veh, LRRFIP1 / RFU, NDUFAF7 / Fold change vs veh, NDUFAF7 / RFU, SLC12A2 / Fold change vs veh, SLC12A2 / RFU, IBTK / Fold change vs veh, IBTK / RFU, ESF1 / Fold change vs veh, ESF1 / Fold change vs veh, TMEM50B / RFU, TAOK1 / Fold change vs veh, TAOK1 / RFU, ACBD3 / Fold change vs veh, ACBD3 / RFU, TMA16 / Fold change vs veh, TMA16 / RFU, RWDD3 / Fold change vs veh, RWDD3 / RFU, BCAT1 / Fold change vs veh, BCAT1 / RFU, EDEM3 / Fold change vs veh, EDEM3 / RFU, TMEM33 / Fold change vs veh, TMEM33 / RFU, WDR75 / Fold change vs veh, WDR75 / RFU, AHCTF1 / Fold change vs veh, AHCTF1 / RFU, TFRC / Fold change vs veh, TFRC / RFU, ZDHHC17 / Fold change vs veh, ZDHHC17 / RFU, NOM1 / Fold change vs veh, NOM1 / RFU, ARL8B / Fold change vs veh, ARL8B / RFU, ZBTB11 / Fold change vs veh, ZBTB11 / RFU, TAMM41 / Fold change vs veh, TAMM41 / RFU, KIAA1704 /// LOC100996395 / Fold change vs veh, KIAA1704 /// LOC100996395 / RFU, ING1 / Fold change vs veh, ING1 / RFU, TRMT61B / Fold change vs veh, TRMT61B / RFU, FUBP3 / Fold change vs veh, FUBP3 / RFU, TP53 / Fold change vs veh, TP53 / RFU, TNKS2 / Fold change vs veh, TNKS2 / RFU, ZFP14 / Fold change vs veh, ZFP14 / RFU, ACTR2 / Fold change vs veh, ACTR2 / RFU, PPP3R1 / Fold change vs veh, PPP3R1 / RFU, PIK3R1 / Fold change vs veh, PIK3R1 / RFU, HNRNPA1 / Fold change vs veh, HNRNPA1 / RFU, RNF170 / Fold change vs veh, RNF170 / RFU, ZNF28 / Fold change vs veh, ZNF28 / RFU, RNGTT / Fold change vs veh, RNGTT / RFU, OGT / Fold change vs veh, OGT / RFU, BRD1 / Fold change vs veh, BRD1 / RFU, MARS / Fold change vs veh, MARS / RFU, ZNF655 / Fold change vs veh, ZNF655 / RFU, FAHD1 / Fold change vs veh, FAHD1 / RFU, BDP1 / Fold change vs veh, BDP1 / RFU, LRRCC1 / Fold change vs veh, LRRCC1 / RFU, ARID1A / Fold change vs veh, ARID1A / RFU, ZNF146 / Fold change vs veh, ZNF146 / RFU, ZNF330 / Fold change vs veh, ZNF330 / RFU, GPN3 / Fold change vs veh, GPN3 / RFU, C9orf123 / Fold change vs veh, C9orf123 / RFU, N4BP2L2 / Fold change vs veh, N4BP2L2 / RFU, ARFIP1 / Fold change vs veh, ARFIP1 / RFU, FAM179B / Fold change vs veh, FAM179B / RFU, BCL10 / Fold change vs veh, BCL10 / RFU, UHRF1BP1L / Fold change vs veh, UHRF1BP1L / RFU, BET1 / Fold change vs veh, BET1 / RFU, CNOT2 / Fold change vs veh, CNOT2 / RFU, ZNF268 / Fold change vs veh, ZNF268 / Fold change vs veh, ZNF507 / RFU, DGCR2 / Fold change vs veh, DGCR2 / RFU, WDSUB1 / Fold change vs veh, WDSUB1 / Fold change vs veh, HSP90B1 /// MIR3652 / RFU, ADSS / Fold change vs veh, ADSS / RFU, GK / Fold change vs veh, GK / RFU, ZNF148 / Fold change vs veh, ZNF148 / RFU, TAF9 / Fold change vs veh, TAF9 / RFU, SLC1A5 / Fold change vs veh, SLC1A5 / RFU, SLMO2 / Fold change vs veh, SLMO2 / RFU, ABCC4 / Fold change vs veh, ABCC4 / RFU, LOC101060439 /// RAP1B / Fold change vs veh, LOC101060439 /// RAP1B / RFU, RFX7 / Fold change vs veh, RFX7 / RFU, GTPBP10 / Fold change vs veh, GTPBP10 / RFU, CNEP1R1 / Fold change vs veh, CNEP1R1 / RFU, BIVM-ERCC5 /// ERCC5 / Fold change vs veh, BIVM-ERCC5 /// ERCC5 / RFU, ILF3 / Fold change vs veh, ILF3 / RFU 11762660_at / Fold change /veh 11762660_at / RFU VCAN (11757783_s_at) / Fold change /veh VCAN (11757783_s_at) / RFU DDX43 (11728927_at) / Fold change /veh DDX43 (11728927_at) / RFU KRT8 (11758188_x_at) / Fold change /veh KRT8 (11758188_x_at) / RFU NKD1 (11759106_at) / Fold change /veh NKD1 (11759106_at) / RFU SRD5A1 (11742802_a_at) / Fold change /veh SRD5A1 (11742802_a_at) / RFU TPSAB1 /// TPSB2 (11721975_s_at) / Fold change /veh TPSAB1 /// TPSB2 (11721975_s_at) / RFU GSTM3 (11746129_a_at) / Fold change /veh GSTM3 (11746129_a_at) / RFU IL23R (11737362_x_at) / Fold change /veh IL23R (11737362_x_at) / RFU TMEM51 (11727254_a_at) / Fold change /veh TMEM51 (11727254_a_at) / RFU PIWIL2 (11732686_x_at) / Fold change /veh PIWIL2 (11732686_x_at) / RFU ORM1 (11744905_x_at) / Fold change /veh ORM1 (11744905_x_at) / RFU CCDC152 (11743942_at) / Fold change /veh CCDC152 (11743942_at) / RFU ECM1 (11717891_a_at) / Fold change /veh ECM1 (11717891_a_at) / RFU IL23R (11748794_a_at) / Fold change /veh IL23R (11748794_a_at) / RFU TNFAIP8L3 (11732012_x_at) / Fold change /veh TNFAIP8L3 (11732012_x_at) / RFU MBOAT4 (11741988_at) / Fold change /veh MBOAT4 (11741988_at) / RFU 11764193_at / Fold change /veh 11764193_at / RFU TMEM53 (11763286_at) / Fold change /veh TMEM53 (11763286_at) / RFU MAGEB2 (11727129_at) / Fold change /veh MAGEB2 (11727129_at) / RFU TMEM200A (11744735_a_at) / Fold change /veh TMEM200A (11744735_a_at) / RFU CCDC152 (11751479_a_at) / Fold change /veh CCDC152 (11751479_a_at) / RFU FAM211A (11726209_a_at) / Fold change /veh FAM211A (11726209_a_at) / RFU RGS16 (11746705_a_at) / Fold change /veh RGS16 (11746705_a_at) / RFU VCAN (11755009_s_at) / Fold change /veh VCAN (11755009_s_at) / RFU RHOB (11743442_s_at) / Fold change /veh RHOB (11743442_s_at) / RFU RGS16 (11720943_a_at) / Fold change /veh RGS16 (11720943_a_at) / RFU RGS16 (11720944_at) / Fold change /veh RGS16 (11720944_at) / RFU, VPS4B / Fold change vs veh, VPS4B / RFU, CREB1 / Fold change vs veh, CREB1 / RFU, DNAJC13 / Fold change vs veh, DNAJC13 / RFU, GNAQ / Fold change vs veh, GNAQ / RFU, CDK5R1 / Fold change vs veh, CDK5R1 / RFU, ZRANB3 / Fold change vs veh, ZRANB3 / RFU, CUL4A / Fold change vs veh, CUL4A / RFU, CCNY / Fold change vs veh, CCNY / RFU, UFL1 / Fold change vs veh, UFL1 / RFU, COG3 / Fold change vs veh, COG3 / RFU, DIAPH2 / Fold change vs veh, DIAPH2 / RFU, SKA2 / Fold change vs veh, SKA2 / RFU, AFF3 / Fold change vs veh, AFF3 / RFU, LMF1 / Fold change vs veh, LMF1 / RFU, IPO11 / Fold change vs veh, IPO11 / RFU, DFFB / Fold change vs veh, DFFB / RFU, FOXP1 / Fold change vs veh, FOXP1 / RFU, CARD8 / Fold change vs veh, CARD8 / RFU, STRN3 / Fold change vs veh, STRN3 / RFU, ADK / Fold change vs veh, ADK / RFU, RASSF2 / Fold change vs veh, RASSF2 / RFU, WIPF1 / Fold change vs veh, WIPF1 / RFU, LARP1B / Fold change vs veh, LARP1B / RFU, RASA1 / Fold change vs veh, RASA1 / RFU, RB1 / Fold change vs veh, RB1 / RFU, PPFIA1 / Fold change vs veh, PPFIA1 / RFU, MAT2A / Fold change vs veh, MAT2A / RFU, CCT5 / Fold change vs veh, CCT5 / RFU, WDR92 / Fold change vs veh, WDR92 / RFU, CUX1 / Fold change vs veh, CUX1 / RFU, TTC7A / Fold change vs veh, TTC7A / RFU, TMEM135 / Fold change vs veh, TMEM135 / RFU, DEPTOR / Fold change vs veh, DEPTOR / RFU, CPM / Fold change vs veh, CPM / RFU, DNAJB6 / Fold change vs veh, DNAJB6 / RFU, CACNA2D3 / Fold change vs veh, CACNA2D3 / RFU, DTX4 / Fold change vs veh, DTX4 / RFU, TFCP2 / Fold change vs veh, TFCP2 / RFU, GMCL1 /// GMCL1P1 / Fold change vs veh, GMCL1 /// GMCL1P1 / RFU, AEBP2 / Fold change vs veh, AEBP2 / RFU, SNHG1 /// SNORD22 /// SNORD25 /// SNORD26 /// SNORD27 /// SNORD28 /// SNORD29 /// SNORD31 / Fold change vs veh, SNHG1 /// SNORD22 /// SNORD25 /// SNORD26 /// SNORD27 /// SNORD28 /// SNORD29 /// SNORD31 / Fold change (Aza/veh), C12orf56 (ProbeSet 11735607_a_at) / Fold change (ACY-1035/veh), C12orf56 (ProbeSet 11735607_a_at) / Fold change (Aza/veh), FGFR1OP (ProbeSet 11751329_s_at) / Fold change (ACY-1035/veh), FGFR1OP (ProbeSet 11751329_s_at) / Fold change (Aza/veh), VPS36 (ProbeSet 11739960_a_at) / Fold change (ACY-1035/veh), VPS36 (ProbeSet 11739960_a_at) / RFU SYPL1 (11715823_x_at) / Fold change /veh SYPL1 (11715823_x_at) / RFU IGFBP7 (11715501_s_at) / Fold change /veh IGFBP7 (11715501_s_at) / RFU REEP3 (11722064_at) / Fold change /veh REEP3 (11722064_at) / RFU IGLL1 (11728026_x_at) / Fold change /veh IGLL1 (11728026_x_at): dose or concentration left out as unconfirmed
Conditions: ProbeSet 11758919_x_at; LIST D

**Q.** How did the “Fold change vs veh, TFCP2” value turn out when `Nc1ccc(-c2cccs2)cc1NC(=O)c1ccc2c(c1)cc(C1CC1)n2CCN1CCOCC1` [ACY-1035] was run?
**A.** 0.94
